Assay results: PubChem BioAssay (NCI)
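GI50 marks 50% less growth. The concentration for full growth arrest is given as TGI.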

What was measured:
Assay in all cases: NCI-60 cell line screen, 384-well format
SN12C renal = tested on: SN12C renal
NCI-H460 NSCLC = tested on: NCI-H460 NSCLC
SNB-19 CNS = tested on: SNB-19 CNS
HS 578T breast = tested on: HS 578T breast
KM12 colon = tested on: KM12 colon
HT29 colon = tested on: HT29 colon
OVCAR-5 ovarian = tested on: OVCAR-5 ovarian
HCT-116 colon = tested on: HCT-116 colon
K-562 leukemia = tested on: K-562 leukemia
SF-539 CNS = tested on: SF-539 CNS
SK-MEL-28 melanoma = tested on: SK-MEL-28 melanoma
SK-MEL-5 melanoma = tested on: SK-MEL-5 melanoma
MDA-MB-435 melanoma = tested on: MDA-MB-435 melanoma
NCI-H23 lung = tested on: NCI-H23 lung
MALME-3M melanoma = tested on: MALME-3M melanoma
UACC-257 melanoma = tested on: UACC-257 melanoma
NCI-H522 lung = tested on: NCI-H522 lung
COLO 205 colon = tested on: COLO 205 colon
SF-295 CNS = tested on: SF-295 CNS
SR leukemia = tested on: SR leukemia
MCF7 breast = tested on: MCF7 breast
CAKI-1 renal = tested on: CAKI-1 renal
SF-268 CNS = tested on: SF-268 CNS
MDA-MB-231 breast = tested on: MDA-MB-231 breast
DU-145 prostate = tested on: DU-145 prostate
786-0 renal = tested on: 786-0 renal
NCI/ADR-RES ovarian = tested on: NCI/ADR-RES ovarian
PC-3 prostate = tested on: PC-3 prostate
HL-60(TB) leukemia = tested on: HL-60(TB) leukemia
HOP-92 NSCLC = tested on: HOP-92 NSCLC
HCC-2998 colon = tested on: HCC-2998 colon
RPMI-8226 leukemia = tested on: RPMI-8226 leukemia
ACHN renal = tested on: ACHN renal
UACC-62 melanoma = tested on: UACC-62 melanoma
MDA-MB-468 breast = tested on: MDA-MB-468 breast
LOX IMVI melanoma = tested on: LOX IMVI melanoma
A549 NSCLC = tested on: A549 NSCLC
UO-31 renal = tested on: UO-31 renal
IGROV1 ovarian = tested on: IGROV1 ovarian
EKVX NSCLC = tested on: EKVX NSCLC
HOP-62 NSCLC = tested on: HOP-62 NSCLC
A498 renal = tested on: A498 renal
NCI-H226 lung = tested on: NCI-H226 lung
CCRF-CEM leukemia = tested on: CCRF-CEM leukemia
HCT-15 colon = tested on: HCT-15 colon
OVCAR-4 ovarian = tested on: OVCAR-4 ovarian
RXF 393 renal = tested on: RXF 393 renal
T-47D breast = tested on: T-47D breast
SNB-75 CNS = tested on: SNB-75 CNS
M14 melanoma = tested on: M14 melanoma
MOLT-4 leukemia = tested on: MOLT-4 leukemia
TK-10 renal = tested on: TK-10 renal
OVCAR-3 ovarian = tested on: OVCAR-3 ovarian
SK-MEL-2 melanoma = tested on: SK-MEL-2 melanoma
BT-549 breast = tested on: BT-549 breast
U251 glioblastoma = tested on: U251 glioblastoma
SK-OV-3 ovarian = tested on: SK-OV-3 ovarian
SW-620 colon = tested on: SW-620 colon
NCI-H322M lung = tested on: NCI-H322M lung

In the case of `Cc1cc(Nc2cc(N3CCN(C)CC3)nc(C#Cc3ccccc3)n2)n[nH]1`, the GI50 (SN12C renal) was 2.73 µM, the TGI (SN12C renal) was 12.7 µM and the GI50 (NCI-H460 NSCLC) was 2.42 µM. The TGI (NCI-H460 NSCLC) was 12.1 µM, the GI50 (SNB-19 CNS) was 6.17 µM and the TGI (SNB-19 CNS) was 19.3 µM. For the same molecule, the GI50 (HS 578T breast) was 2.24 µM, the TGI (HS 578T breast) was 9.92 µM and the GI50 (KM12 colon) was 0.334 µM. For the same molecule, the TGI (KM12 colon) was 10.4 µM, the GI50 (HT29 colon) was 3.95 µM and the TGI (HT29 colon) was 14.8 µM. The GI50 (OVCAR-5 ovarian) was 3.53 µM, the TGI (OVCAR-5 ovarian) was 15.2 µM and the GI50 (HCT-116 colon) was 2.94 µM. For the same molecule, the TGI (HCT-116 colon) was 11.9 µM, the GI50 (K-562 leukemia) was 2.63 µM and the TGI (K-562 leukemia) was 12.3 µM. The GI50 (SF-539 CNS) was 3.62 µM, the TGI (SF-539 CNS) was 15.9 µM and the GI50 (SK-MEL-28 melanoma) was 5.59 µM. It also gave a TGI (SK-MEL-28 melanoma) of 18.8 µM, a GI50 (SK-MEL-5 melanoma) of 2.49 µM and a TGI (SK-MEL-5 melanoma) of 12.9 µM. It also gave a GI50 (MDA-MB-435 melanoma) of 3.18 µM, a TGI (MDA-MB-435 melanoma) of 12.6 µM and a GI50 (NCI-H23 lung) of 2.3 µM. For the same molecule, the TGI (NCI-H23 lung) was 10.9 µM, the GI50 (MALME-3M melanoma) was 2.57 µM and the TGI (MALME-3M melanoma) was 11.8 µM. The GI50 (UACC-257 melanoma) was 3.77 µM, the TGI (UACC-257 melanoma) was 14.3 µM and the GI50 (NCI-H522 lung) was 1.71 µM. For the same molecule, the TGI (NCI-H522 lung) was 8.3 µM, the GI50 (COLO 205 colon) was 3.73 µM and the TGI (COLO 205 colon) was 14.5 µM. It also gave a GI50 (SF-295 CNS) of 2.95 µM, a TGI (SF-295 CNS) of 13 µM and a GI50 (SR leukemia) of 1.36 µM. For the same molecule, the TGI (SR leukemia) was 2.75 µM, the GI50 (MCF7 breast) was 3.07 µM and the TGI (MCF7 breast) was 15.1 µM. The GI50 (CAKI-1 renal) was 1.6 µM, the TGI (CAKI-1 renal) was 7.03 µM and the GI50 (SF-268 CNS) was 4.58 µM. The TGI (SF-268 CNS) was 16.9 µM, the GI50 (MDA-MB-231 breast) was 3.54 µM and the TGI (MDA-MB-231 breast) was 15.9 µM. The GI50 (DU-145 prostate) was 4.04 µM, the TGI (DU-145 prostate) was 17.4 µM and the GI50 ([…]-0 renal) was 3.75 µM. It also gave a TGI (786-0 renal) of 15 µM, a GI50 (NCI/ADR-RES ovarian) of 9.92 µM and a TGI (NCI/ADR-RES ovarian) of 22 µM. The GI50 (PC-3 prostate) was 3.09 µM, the TGI (PC-3 prostate) was 13.9 µM and the GI50 (HL-60(TB) leukemia) was 2.12 µM. It also gave a TGI (HL-60(TB) leukemia) of 5.14 µM, a GI50 (HOP-92 NSCLC) of 2.23 µM and a TGI (HOP-92 NSCLC) of 8.85 µM. The GI50 (HCC-2998 colon) was 0.348 µM, the TGI (HCC-2998 colon) was 6.72 µM and the GI50 (RPMI-8226 leukemia) was 3.24 µM. It also gave a TGI (RPMI-8226 leukemia) of 13.4 µM, a GI50 (ACHN renal) of 1.23 µM and a TGI (ACHN renal) of 7.68 µM. It also gave a GI50 (UACC-62 melanoma) of 3.1 µM, a TGI (UACC-62 melanoma) of 14.8 µM and a GI50 (MDA-MB-468 breast) of 1.51 µM. It also gave a TGI (MDA-MB-468 breast) of 3.55 µM, a GI50 (LOX IMVI melanoma) of 4.02 µM and a TGI (LOX IMVI melanoma) of 13 µM. The GI50 (A549 NSCLC) was 3.44 µM, the TGI (A549 NSCLC) was 12.2 µM and the GI50 (UO-31 renal) was 2.2 µM. It also gave a TGI (UO-31 renal) of 8.13 µM, a GI50 (IGROV1 ovarian) of 0.607 µM and a TGI (IGROV1 ovarian) of 3.28 µM. It also gave a GI50 (EKVX NSCLC) of 2.79 µM, a TGI (EKVX NSCLC) of 12.7 µM and a GI50 (HOP-62 NSCLC) of 3.28 µM. The TGI (HOP-62 NSCLC) was 13.5 µM, the GI50 (A498 renal) was 1.66 µM and the TGI (A498 renal) was 11 µM. The GI50 (NCI-H226 lung) was 4.3 µM, the TGI (NCI-H226 lung) was 16.9 µM and the GI50 (CCRF-CEM leukemia) was 2.19 µM. The TGI (CCRF-CEM leukemia) was 7.01 µM, the GI50 (HCT-15 colon) was 2.22 µM and the TGI (HCT-15 colon) was 11.4 µM. It also gave a GI50 (OVCAR-4 ovarian) of 5.97 µM, a TGI (OVCAR-4 ovarian) of 20 µM and a GI50 (RXF 393 renal) of 1.07 µM. The TGI (RXF 393 renal) was 4.32 µM, the GI50 (T-47D breast) was 9.61 µM and the TGI (T-47D breast) was 21.4 µM. For the same molecule, the GI50 (SNB-75 CNS) was 1.73 µM, the TGI (SNB-75 CNS) was 4.35 µM and the GI50 (M14 melanoma) was 3.13 µM. It also gave a TGI (M14 melanoma) of 16.5 µM, a GI50 (MOLT-4 leukemia) of 1.26 µM and a TGI (MOLT-4 leukemia) of 2.58 µM. For the same molecule, the GI50 (TK-10 renal) was 2.48 µM, the TGI (TK-10 renal) was 15.2 µM and the GI50 (OVCAR-3 ovarian) was 2.12 µM. For the same molecule, the TGI (OVCAR-3 ovarian) was 13.4 µM, the GI50 (SK-MEL-2 melanoma) was 4.14 µM and the TGI (SK-MEL-2 melanoma) was 6.87 µM. For the same molecule, the GI50 (BT-549 breast) was 2.58 µM, the TGI (BT-549 breast) was 7.09 µM and the GI50 (U251 glioblastoma) was 5.41 µM. For the same molecule, the TGI (U251 glioblastoma) was 18.6 µM, the GI50 (SK-OV-3 ovarian) was 1.04 µM and the TGI (SK-OV-3 ovarian) was 4.36 µM. It also gave a GI50 (SW-620 colon) of 3.42 µM, a TGI (SW-620 colon) of 12.5 µM and a GI50 (NCI-H322M lung) of 5.44 µM. For the same molecule, the TGI (NCI-H322M lung) was 19.6 µM.
